# According to patent US8030354B2, “Substituted biphenyl GPR40 modulators” (Amgen Inc., priority 2007, dated 2011):
# Molecular target: GPR40 (Homo sapiens, UniProt O14842)
# Assay: Cell-based aequorin assay (CHO cells stably expressing GPR40 and aequorin)
# Parameters: expressed in transfected cells; host or cells: CHO cells stably transfected with GPR40 and aequorin
# Settings: activation of human GPR40, CHO cells, 0.01% HSA
# Experimental: Briefly, the Aequorin assays were performed on doubly stable CHO cells expressing GPR40 and Aequorin DNA. […] The luminescence was recorded over a period of 20 seconds with a Microlumat luminometer (Berthold). […] The inositol phosphate assay was performed on an A9 cell line stably transfected with GPR40 (A9_GPR40). The cells were incubated with different concentrations of compounds and [^3H] inositol accumulation was measured after 1 hour.
# Cell-based aequorin assays were employed to characterize the modulatory activity of compounds on the GPR40 signaling pathway. In an exemplary assay, CHO cells were stably transfected with both GPR40 and Aequorin (Euroscreen). Cells were detached from the tissue culture dish with 2 mL of trypsin (0.25%(w/v)). Trypsinization was halted with 28 mL of Hanks Buffered Salt Solution containing 20 mM Hepes (H/HBSS) and 0.01% fatty acid-free human serum albumin (HSA). Coelantrazine is added to 1 ug/mL, and the cells were incubated for 2 hours at room temperature. Compounds were dissolved in DMSO for preparation of 10 mM stock solutions. Compounds were diluted in H/HBSS containing 0.01% HSA. Serial dilutions of the test compounds were prepared to determine dose response.
# Aequorin luminescence measurements were made using an EG&G Berthold 96-well luminometer, and the response was measured over a 20 second interval after cells and compounds were mixed. The maximum relative light units was plotted to determine dose response. The EC50 (effective concentration to reach 50% maximal response) was determined from the dose response plot.
# Sequence of GPR40 (O14842 whole entry): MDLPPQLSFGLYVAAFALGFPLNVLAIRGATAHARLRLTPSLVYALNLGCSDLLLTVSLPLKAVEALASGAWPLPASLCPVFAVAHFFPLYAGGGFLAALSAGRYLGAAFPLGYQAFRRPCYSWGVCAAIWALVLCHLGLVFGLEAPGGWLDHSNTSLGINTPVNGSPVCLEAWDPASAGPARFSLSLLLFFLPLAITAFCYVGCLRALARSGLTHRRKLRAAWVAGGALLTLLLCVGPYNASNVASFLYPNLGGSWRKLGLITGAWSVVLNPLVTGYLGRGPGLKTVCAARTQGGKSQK
row,Structure (SMILES),EC50
1,"CCC/C=C/c1cc(COc2cccc(C(C)CC(=O)O)c2)ccc1-c1cc(OC)ccc1F (single isomer, unassigned) [Example 64.8, (3R)-3-(3-(((2′-Fluoro-5′-(methyloxy)-2-((1E)-1-pentenyl)-1,1′-biphenyl-4-yl)methyl)oxy)phenyl)butanoic acid or (3S)-3-(3-(((2′-fluoro-5′-(methyloxy)-2-((1E)-1-pentenyl)-1,1′-biphenyl-4-yl)methyl)oxy)phenyl)butanoic acid]",100 to 1000 nM
2,"COc1ccc(F)c(-c2ccc(COc3cccc([C@@H](CC(=O)O)C4CC4)c3)cc2[C@H]2OCCCC2(C)C)c1 (single isomer, unassigned) [Example 66.55]",1000 to 10000 nM
3,"COC[C@H](CC(=O)O)c1cccc(OCc2ccc(-c3cc(OC)ccc3F)c(C(C)(C)C)c2)c1 (single isomer, unassigned) [Example 102, (3R)-3-(3-(((2-(1,1-Dimethylethyl)-2′-fluoro-5′-(methyloxy)-1,1′-biphenyl-4-yl)methyl)oxy)phenyl)-4-(methyloxy)butanoic acid or (3S)-3-(3-(((2-(1,1-dimethylethyl)-2′-fluoro-5′-(methyloxy)-1,1′-biphenyl-4-yl)methyl)oxy)phenyl)-4-(methyloxy)butanoic acid]",100 to 1000 nM
4,"C=CC(C)(C)[C@H](OC)c1cc(COc2cccc([C@@H](CC(=O)O)CC3CC3)c2)ccc1-c1cc(OC)ccc1F (single isomer, unassigned) [Example 69.39]",1000 to 10000 nM
5,"CCCCOc1cc(COc2cccc(C(CCC(F)(F)F)CC(=O)O)c2)ccc1-c1cc(OC)ccc1F (single isomer, unassigned) [Example 68.2, (3R)-3-(3-(((2-(Butyloxy)-2′-fluoro-5′-(methyloxy)-1,1′-biphenyl-4-yl)methyl)oxy)phenyl)-6,6,6-trifluorohexanoic acid or (3S)-3-(3-(((2-(butyloxy)-2′-fluoro-5′-(methyloxy)-1,1′-biphenyl-4-yl)methyl)oxy)phenyl)-6,6,6-trifluorohexanoic acid]",1000 to 10000 nM
6,"COc1ccc(F)c(-c2ccc(COc3cccc([C@@H](CC(=O)O)C4CC4)c3)cc2[C@H](C)C(C)(C)C)c1 (single isomer, unassigned) [Example 66.18]",100 to 1000 nM
7,"COc1ccc(F)c(-c2ccc(COc3cccc([C@@H](CC(=O)O)C4CC4)c3)cc2C2CCCCCCC2)c1 (single isomer, unassigned) [Example 66.16, (3S)-3-(3-(((2-Cyclooctyl-2′-fluoro-5′-(methyloxy)-1,1′-biphenyl-4-yl)methyl)oxy)phenyl)-3-cyclopropylpropanoic acid or (3R)-3-(3-(((2-cyclooctyl-2′-fluoro-5′-(methyloxy)-1,1′-biphenyl-4-yl)methyl)oxy)phenyl)-3-cyclopropylpropanoic acid]",100 to 1000 nM
8,"COc1ccc(F)c(-c2ccc(COc3cccc([C@@H](CC(=O)O)C4CC4)c3)cc2CN2CCCCC2)c1 (single isomer, unassigned) [Example 66.64, (3S)-3-Cyclopropyl-3-(3-(((2′-fluoro-5′-(methyloxy)-2-(1-piperidinylmethyl)-1,1′-biphenyl-4-yl)methyl)oxy)phenyl)propanoic acid or (3R)-3-cyclopropyl-3-(3-(((2′-fluoro-5′-(methyloxy)-2-(1-piperidinylmethyl)-1,1′-biphenyl-4-yl)methyl)oxy)phenyl)propanoic acid]",1000 to 10000 nM
9,"COc1cccc(-c2ccc(COc3cccc([C@@H](CC(=O)O)C(C)C)c3)cc2C(C)(C)C)c1 (single isomer, unassigned) [Example 58, (3S)-3-(3-(((2-(1,1-Dimethylethyl)-3′-(methyloxy)-1,1′-biphenyl-4-yl)methyl)oxy)phenyl)-4-methylpentanoic acid or (3R)-3-(3-(((2-(1,1-dimethylethyl)-3′-(methyloxy)-1,1′-biphenyl-4-yl)methyl)oxy)phenyl)-4-methylpentanoic acid]",1000 to 10000 nM
10,"CCCCOc1cc(COc2cccc(C(CC(=O)O)C3CC3)c2)ccc1-c1cccc(OC)c1 (single isomer, unassigned) [Example 66.1, (3S)-3-(3-(((2-(Butyloxy)-3′-(methyloxy)-1,1′-biphenyl-4-yl)methyl)oxy)phenyl)-3-cyclopropylpropanoic acid or (3R)-3-(3-(((2-(butyloxy)-3′-(methyloxy)-1,1′-biphenyl-4-yl)methyl)oxy)phenyl)-3-cyclopropylpropanoic acid]",100 to 1000 nM
11,"C=CC(C)(C)[C@H](O)c1cc(COc2cccc([C@H](CCC)CC(=O)O)c2)ccc1-c1cc(OC)ccc1F (single isomer, unassigned) [Example 67.25, (3R)-3-(3-(((2′-Fluoro-2-((1S)-1-hydroxy-2,2-dimethyl-3-butenyl)-5′-(methyloxy)-1,1′-biphenyl-4-yl)methyl)oxy)phenyl)hexanoic acid or (3R)-3-(3-(((2′-fluoro-2-((1R)-1-hydroxy-2,2-dimethyl-3-butenyl)-5′-(methyloxy)-1,1′-biphenyl-4-yl)methyl)oxy)phenyl)hexanoic acid]",1000 to 10000 nM
12,"CC(=O)c1cccc(-c2ccc(COc3cccc([C@@H](CC(=O)O)C4CC4)c3)cc2[C@H]2CCCC2(C)C)c1 (single isomer, unassigned) [Example 66.74, (S)-3-(3-((S)-3-((S)-2,2-Dimethylcyclopentyl)-4-(3-acetylphenyl)benzyloxy)phenyl)-3-cyclopropylpropanoic acid or stereoisomer thereof]",1000 to 10000 nM
13,"CCCCOc1cc(COc2cccc([C@H](C)CC(=O)O)c2)ccc1-c1cccc(OCC)c1 (single isomer, unassigned) [Example 22, (3R)-3-(3-(((2-(Butyloxy)-3′-(ethyloxy)-1,1′-biphenyl-4-yl)methyl)oxy)phenyl)butanoic acid or (3S)-3-(3-(((2-(butyloxy)-3′-(ethyloxy)-1,1′-biphenyl-4-yl)methyl)oxy)phenyl)butanoic acid]",1000 to 10000 nM
14,"COc1ccc(F)c(-c2ccc(COc3cccc(C(CC(=O)O)CC(C)C)c3)cc2C(C)(C)C)c1 (single isomer, unassigned) [Example 92, (3R)-3-(3-(((2-(1,1-Dimethylethyl)-2′-fluoro-5′-(methyloxy)-1,1′-biphenyl-4-yl)methyl)oxy)phenyl)-5-methylhexanoic acid or (3S)-3-(3-(((2-(1,1-dimethylethyl)-2′-fluoro-5′-(methyloxy)-1,1′-biphenyl-4-yl)methyl)oxy)phenyl)-5-methylhexanoic acid]",1000 to 10000 nM
15,"CSc1cccc(-c2ccc(COc3cccc(C(C)CC(=O)O)c3)cc2C(C)(C)C)c1 (single isomer, unassigned) [Example 64.23, (3R)-3-(3-(((2-(1,1-Dimethylethyl)-3′-(methylsulfanyl)-1,1′-biphenyl-4-yl)methyl)oxy)phenyl)butanoic acid or (3S)-3-(3-(((2-(1,1-dimethylethyl)-3′-(methylsulfanyl)-1,1′-biphenyl-4-yl)methyl)oxy)phenyl)butanoic acid]",1000 to 10000 nM
16,"COc1ccc(F)c(-c2ccc(COc3cccc(C(CC(=O)O)C4CC4)c3)cc2C2CCCC2(C)C)c1 (single isomer, unassigned) [Example 66.5]",100 to 1000 nM

# Now from value to molecule:
row,EC50,Structure (SMILES)
1,100 to 1000 nM,"CCCCC(CC(=O)O)c1cccc(OCc2ccc(-c3cc(OC)ccc3F)c(C(C)(C)C)c2)c1 (single isomer, unassigned) [Example 71.1, (3R)-3-(3-(((2-(1,1-Dimethylethyl)-2′-fluoro-5′-(methyloxy)-1,1′-biphenyl-4-yl)methyl)oxy)phenyl)heptanoic acid or (3S-3-(3-(((2-(1,1-dimethylethyl)-2′-fluoro-5′-(methyloxy)-1,1′-biphenyl-4-yl)methyl)oxy)phenyl)heptanoic acid]"
2,1000 to 10000 nM,"CCOCc1cc(COc2cccc(C(CC(=O)O)CC3CC3)c2)ccc1-c1cc(OC)ccc1F (single isomer, unassigned) [Example 69.37, (3R)-4-Cyclopropyl-3-(3-(((2-((ethyloxy)methyl)-2′-fluoro-5′-(methyloxy)-1,1′-biphenyl-4-yl)methyl)oxy)phenyl)butanoic acid or (3S)-4-cyclopropyl-3-(3-(((2-((ethyloxy)methyl)-2′-fluoro-5′-(methyloxy)-1,1′-biphenyl-4-yl)methyl)oxy)phenyl)butanoic acid]"
3,100 to 1000 nM,"CCC(CC(=O)O)c1cc(F)cc(OCc2ccc(-c3cc(OC)ccc3F)c(C3CCCC3(C)C)c2)c1F (single isomer, unassigned) [Example 101.2]"
4,1000 to 10000 nM,"CCOCc1cc(COc2cccc(C(CC)CC(=O)O)c2)ccc1-c1cc(OC)ccc1F (single isomer, unassigned) [Example 78.12, (3R)-3-(3-(((2-((Ethyloxy)methyl)-2′-fluoro-5′-(methyloxy)-1,1′-biphenyl-4-yl)methyl)oxy)phenyl)pentanoic acid or (3S)-3-(3-(((2-((ethyloxy)methyl)-2′-fluoro-5′-(methyloxy)-1,1′-biphenyl-4-yl)methyl)oxy)phenyl)pentanoic acid]"
5,100 to 1000 nM,"CCC(CC(=O)O)c1cccc(OCc2ccc(-c3cc(OC)ccc3F)c(C3CCCC3(C)C)c2)c1 (single isomer, unassigned) [Example 98.1]"
